# Results from ChEMBL document CHEMBL3244261, “3-hydroxyisoxazole-5-hydroxamic acid” (1977).
# Activity calls are given as the source filed them. No cut-off for these calls is given here.
# Assays:
# L1210 = experiment: Antitumor activity against mouse L1210 cells allografted in mouse at 100 mg/kg; type: functional, organism-based; parameters: dose 100 mg/kg
# P388 = experiment: Antitumor activity against mouse P388 cells allografted in mouse assessed as tumor growth inhibition at 100 mg/kg relative to control; type: functional
Structure (SMILES),Activity (L1210),T/C (P388) [%]
O=C(NO)c1cc(O)no1,inactive,
O=C(/C=C(\Cl)C(=O)NO)NO,inactive,154
